Measured values taken from patent publication US9006191B2, “Silencing of polo-like kinase expression using interfering RNA” (Protiva Biotherapeutics, Inc., priority 2007, dated 2015).

Tested on: HT29 cells
Test: HT29 cell viability assay (CellTiter-Blue)
Assay type: cell-based, human
Conditions: HT29 cells, SNALP-formulated siRNA at a range of siRNA concentrations, viability at 72 h relative to PBS
Procedure: Various PLK-1 siRNAs were formulated as SNALP (“2:40” SNALP formulation: 2% PEG-cDMA; 40% DLinDMA; 10% DSPC; and 48% cholesterol) and evaluated for their inhibitory effects on cell growth in vitro. HT29 (human colon adenocarcinoma) or Neuro2A (mouse neuroblastoma) cells were treated with various PLK-1 SNALP at a range of siRNA concentrations and their effect on cell viability was evaluated. Viability of cell cultures is expressed as % viability relative to PBS treated controls.
Additional PLK-1 siRNA molecules were formulated as SNALP (“2:40” SNALP formulation: 2% PEG-cDMA; 40% DLinDMA; 10% DSPC; and 48% cholesterol) and evaluated for their inhibitory effects on cell growth in vitro. HT29 or Neuro2A cells were plated in triplicate at 5000 cells/well and 2500 cells/well, respectively. PLK-1 SNALP dosages were as follows: 25 nM; 5 nM; and 1 nM. Cell viability analysis was performed at 72 hours following transfection. SNALP containing a non-targeting (GFP) siRNA were used as a negative control. […]
PLK-1 siRNA molecules containing 2′-O-methyl (2′OMe) nucleotides at selective positions within the double-stranded region of the siRNA duplex were formulated as SNALP (“2:40” SNALP formulation: 2% PEG-cDMA; 40% DLinDMA; 10% DSPC; and 48% cholesterol) and evaluated for their inhibitory effects on cell growth in vitro. HT29 cells were plated in triplicate at 5000 cells/well. Cell viability analysis was performed at 72 hours following transfection with a range of PLK-1 SNALP dosages. SNALP containing a non-targeting (GFP) siRNA were used as a negative control.
Cell viability assays. […] Cell viability analysis was performed at 72 hours following transfection with a range of PLK-1 SNALP dosages.

Row | Substance | cell viability / killing of human tumor cells
1 | PLK1233: siRNA to human PLK-1, SEQ ID NO:25/26 (chain 1 CAGCAAGUGGGUGGACUAU; chain 2 AUAGUCCACCCACUUGCUG; listed as RNA, chemistry not given here) | effective at killing human tumor cells
2 | PLK1081: siRNA to human PLK-1, SEQ ID NO:17/18 (chain 1 CCAGUGGUUCGAGAGACAG; chain 2 CUGUCUCUCGAACCACUGG; listed as RNA, chemistry not given here) | inhibited the growth of human tumor cells, but at higher siRNA concentrations
3 | PLK832: siRNA to human PLK-1, SEQ ID NO:13/14 (chain 1 GCCGCCUCCCUCAUCCAGA; chain 2 UCUGGAUGAGGGAGGCGGC; listed as RNA, chemistry not given here) | effective at killing human tumor cells
4 | PLK1424 U4/GU: 2′OMe-modified PLK1424 siRNA, SEQ ID NO:57/54 (chain 1 AGANCACCCNCCUNAAANANN; chain 2 UAUUUAANGAGGGUGANCUNN; 2'-OMe modifications, further chemistry not given here) | as potent as the unmodified PLK1424 sequence
5 | PLK1425 3/5: 2′OMe-modified PLK1425 siRNA, SEQ ID NO:67/68 (chain 1 GANCACCCUCCUNAAANAUNN; chain 2 AUAUUUAANGAGGGUGANCNN; 2'-OMe modifications, chemistry not fully specified) | more potent than the unmodified PLK1425 sequence
6 | PLK1424 U3/GU: 2′OMe-modified PLK1424 siRNA, SEQ ID NO:53/54 (chain 1 AGANCACCCNCCUNAAAUANN; chain 2 UAUUUAANGAGGGUGANCUNN; 2'-OMe modifications, further chemistry not given here) | as potent as the unmodified PLK1424 sequence
7 | PLK694: siRNA to human PLK-1, SEQ ID NO:9/10 (chain 1 GUGGAUGUGUGGUCCAUUG; chain 2 CAAUGGACCACACAUCCAC; listed as RNA, chemistry not given here) | effective at killing human tumor cells
8 | PLK1242: siRNA to human PLK-1, SEQ ID NO:27/28 (chain 1 GGUGGACUAUUCGGACAAG; chain 2 CUUGUCCGAAUAGUCCACC; listed as RNA, chemistry not given here) | effective at killing human tumor cells
9 | PLK1556: siRNA to human PLK-1, SEQ ID NO:31/32 (chain 1 GCGCCAUCAUCCUGCACCU; chain 2 AGGUGCAGGAUGAUGGCGC; listed as RNA, chemistry not given here) | effective at killing human tumor cells
10 | PLK772: siRNA to human PLK-1, SEQ ID NO:11/12 (chain 1 GAGACCUACCUCCGGAUCA; chain 2 UGAUCCGGAGGUAGGUCUC; listed as RNA, chemistry not given here) | effective at killing human tumor cells
11 | PLK1195: siRNA to human PLK-1, SEQ ID NO:19/20 (chain 1 GAGGCUGAGGAUCCUGCCU; chain 2 AGGCAGGAUCCUCAGCCUC; listed as RNA, chemistry not given here) | effective at killing human tumor cells
12 | PLK773 G/GU: 2′OMe-modified PLK773 siRNA, SEQ ID NO:64/63 (chain 1 AGACCUACCUCCGGAUCAANN; chain 2 UUGAUCCGGAGGUAGGUCUNN; chain 1: 2'-O-methyl at 2, 13, other sugars, backbone and the base at N not given here; chain 2: 2'-O-methyl at 9, 12, 17, other sugars, backbone and the base at N not given here; 3' NN overhangs: dT or U ribonucleotide) | more potent than the unmodified PLK1424 sequence
